The results in this text go back to ChEMBL document CHEMBL5346978, “Exploration of Tetrahydroisoquinoline- and Benzo[c]azepine-Based Sphingosine 1-Phosphate Receptor 1 Agonists for the Treatment of Multiple Sclerosis” (J Med Chem, 2023).

Format in all cases: functional, cell-based
Assay [1] has as its target T1, Sphingosine 1-phosphate receptor 1 (Homo sapiens, UniProt P21453). The assay is described as follows: Agonist activity at S1P1 (unknown origin) expressed in human HEK293/Galpha15 cells assessed as Ca2+ activation measured for 2 hrs by FLIPR analysis.
Assay [2] has as its target T1, Sphingosine 1-phosphate receptor 1. The assay is described as follows: Agonist activity at S1P1 (unknown origin) expressed in PathHunter CHO-K1 EDG1 beta-arrestin cells assessed as beta-arrestin2 recruitment at 1 uM incubated for 90 mins by chemiluminescence based assay relative to control.
For assay [3] the target is unchanged. The assay is described as follows: Agonist activity at S1P1 (unknown origin) expressed in PathHunter CHO-K1 EDG1 beta-arrestin cells assessed as beta-arrestin2 recruitment incubated for 90 mins by chemiluminescence based assay. For orientation: Recruitment of arrestin is a read-out of receptor activation apart from second messengers.
Assay [4] shares this target. The assay is described as follows: Agonist activity at S1P1 (unknown origin) expressed in human HEK293/Galpha15 cells assessed as Ca2+ activation at 1 uM measured for 2 hrs by FLIPR analysis relative to control.

As usually defined, the EC50 is the concentration at which the effect is half-maximal.

T1 sequence (P21453 whole entry): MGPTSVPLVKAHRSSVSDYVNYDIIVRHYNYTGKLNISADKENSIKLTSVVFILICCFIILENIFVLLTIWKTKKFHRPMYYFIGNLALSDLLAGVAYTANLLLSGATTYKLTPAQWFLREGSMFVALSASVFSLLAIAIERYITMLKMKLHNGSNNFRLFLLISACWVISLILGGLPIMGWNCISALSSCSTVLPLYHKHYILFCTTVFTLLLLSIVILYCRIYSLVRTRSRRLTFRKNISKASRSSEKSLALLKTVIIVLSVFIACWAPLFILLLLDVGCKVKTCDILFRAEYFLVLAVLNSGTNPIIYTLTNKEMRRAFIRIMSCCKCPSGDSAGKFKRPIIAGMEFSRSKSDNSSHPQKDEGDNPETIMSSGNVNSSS

As to `CC(=O)NCCCC(=O)N1CCc2cc(OCc3ccc(OC(C)C)c(C#N)c3)ccc2C1`, the EC50 in assay [1] is 1260 nM; in assay [3] it was 424 nM. Moreover, the Activity in assay [2] (filed as agonist) came out at 105%; in assay [4] (filed as agonist) it was 55%.

For `CC(C)Oc1ccc(COc2ccc3c(c2)CCN(CCO)C3)cc1C#N`, the Activity in assay [2] was found to be 32%; in assay [4], 7%.

Take `CC(C)Oc1ccc(COc2ccc3c(c2)CCN(S(=O)(=O)CCCO)C3)cc1C#N`: the Activity in assay [2] (filed as agonist) is 72%; in assay [4], 6%. For the same molecule, in assay [3], the EC50 was found to be 496 nM.

`CC(C)Oc1ccc(COc2ccc3c(c2)CCN(C(=O)CCC(=O)O)C3C)cc1C#N` (centres undefined): in assay [1], the EC50 worked out at 951 nM. For the same molecule, the Activity worked out at 40% in assay [2] (filed as agonist) and 57% in assay [4] (filed as agonist).

As to `CC(C)Oc1ccc(COc2ccc3c(c2)CCN(CCC(=O)O)C3C)cc1C#N` (centres undefined), the EC50 in assay [1] turned out to be 524 nM; in assay [3] it was 105 nM. In addition, the Activity in assay [2] (filed as agonist) worked out at 74%; in assay [4] (filed as agonist), 69%.

For the molecule `COC(=O)CN1CCc2cc(OCc3ccc(OC(C)C)c(C#N)c3)ccc2C1`, the Activity was 32% in assay [2] and 13% in assay [4].

`CC(C)Oc1ccc(C(=O)Nc2ccc3c(c2)CCN(S(=O)(=O)CCC(=O)O)C3)cc1C#N`: the Activity came to 15% in assay [2] and 18% in assay [4].

For `CC(C)Oc1ccc(COc2ccc3c(c2)CN(CCC(=O)O)CC3)cc1C#N`, the values for the Activity in assay [2] and in assay [4] were 2% and 1%, respectively.

`CC(C)Oc1ccc(COc2ccc3c(c2)CCN(C(=O)CCO)C3)cc1C#N`: the values for the Activity in assay [2] (filed as agonist) and in assay [4] were 88% and 36%, respectively. The EC50 in assay [3] amounted to 184 nM.

For the molecule `CC(C)Oc1ccc(COc2ccc3c(c2)CCN(S(=O)(=O)CCO)C3)cc1C#N`, the Activity in assay [2] (filed as agonist) stood at 88%; in assay [4] (filed as agonist), 44%. The EC50 in assay [3] stood at 191 nM.

As for `CC(C)Oc1ccc(COc2ccc3c(n2)CCN(S(=O)(=O)CCCO)C3)cc1C#N`, the values for the Activity in assay [2] (filed as agonist) and in assay [4] were 118% and 10%, respectively. The EC50 in assay [3] came out at 346 nM.

For the molecule `CC(C)Oc1ccc(COc2ccc3c(c2)CCN(S(=O)(=O)CCC(=O)O)CC3)cc1C#N`, the Activity is 25% in assay [2] and 9% in assay [4].

On to `CC(C)Oc1ccc(COc2ccc3c(c2)CCN(CC(=O)O)C3)cc1C#N`, for which the EC50 worked out at 1.06 nM in assay [1] and 695 nM in assay [3]. Further, the values for the Activity in assay [2] (filed as agonist) and in assay [4] (filed as agonist) were 67% and 56%, respectively.

For `CC(C)Oc1ccc(COc2ccc3c(c2)CCN(C(=O)CCCNS(C)(=O)=O)C3)cc1C#N`, the Activity in assay [2] (filed as agonist) came to 68%; in assay [4] it was 6%. Also, the EC50 in assay [3] was 743 nM.

For the molecule `CC(C)Oc1ccc(CN(C)c2ccc3c(c2)CCN(S(=O)(=O)CCC(=O)O)C3)cc1C#N`, the Activity in assay [2] amounted to 9%; in assay [4], 8%.

Consider `CC(C)Oc1ccc(COc2cccc3c2CCN(S(=O)(=O)CCC(=O)O)C3)cc1C#N`, for which the Activity in assay [2] worked out at 1%; in assay [4] it was 4%.

On to `CC(C)Oc1ccc(COc2ccc3c(c2)CCN(C(C)C(=O)O)C3)cc1C#N` (centres undefined), for which the Activity was determined as 18% in assay [2] and 10% in assay [4].

In the case of `COC(=O)CS(=O)(=O)N1CCc2cc(OCc3ccc(OC(C)C)c(C#N)c3)ccc2C1`, the Activity was determined as 89% in assay [2] (filed as agonist) and 6% in assay [4]. The EC50 in assay [3] amounted to 279 nM.

With `CC(C)Oc1ccc(COc2ccc3c(c2)CCN(CCCCO)C3)cc1C#N`, the Activity in assay [2] turned out to be 24%; in assay [4], 3%.

Turning to `CC(C)Oc1ccc(COc2ccc3c(c2)CCN(S(=O)(=O)CC(=O)O)C3)cc1C#N`, the EC50 in assay [1] came to 89 nM; in assay [3], 162 nM. Besides, the Activity was found to be 92% in assay [2] (filed as agonist) and 85% in assay [4] (filed as agonist).

Consider `CC(C)Oc1ccc(COc2ccc3c(n2)CCN(C(=O)CCC(=O)O)C3)cc1C#N`, for which the Activity amounted to 26% in assay [2] and 14% in assay [4].

As for `COC(=O)CCS(=O)(=O)N1CCc2cc(Nc3ccc(OC(C)C)c(C#N)c3)ccc2C1`, the Activity came to 3% in assay [2] and 5% in assay [4].

Consider `COC(=O)CCN1CCc2cc(OCc3ccc(OC(C)C)c(C#N)c3)ccc2C1`, for which the Activity in assay [2] (filed as agonist) came to 91%; in assay [4] (filed as agonist) it was 40%. For the same molecule, the EC50 in assay [3] turned out to be 331 nM.

Consider `CC(C)Oc1ccc(COc2ccc3c(c2)CN(S(=O)(=O)CCCO)CC3)cc1C#N`, for which the Activity in assay [2] stood at 7%; in assay [4], 3%.

In the case of `COC(=O)CCS(=O)(=O)N1CCc2cc(NC(=O)c3ccc(OC(C)C)c(C#N)c3)ccc2C1`, the Activity in assay [2] and in assay [4] was 7% in each case.

Take `CC(C)Oc1ccc(COc2ccc3c(c2)OCCN(CCC(=O)O)C3)cc1C#N`: the Activity turned out to be 24% in assay [2] and 14% in assay [4].

Turning to `CC(C)Oc1ccc(COc2cccc3c2CCN(S(=O)(=O)CCCO)C3)cc1C#N`, the Activity worked out at 1% in assay [2] and 3% in assay [4].

`CC(C)Oc1ccc(COc2ccc3c(c2)CN(S(=O)(=O)CCC(=O)O)CC3)cc1C#N`: the figures for the Activity in assay [2] and in assay [4] were 4% and 3%, respectively.

Take `CC(C)Oc1ccc(COc2ccc3c(c2)CCN(C(=O)CC(=O)O)C3)cc1C#N`: the EC50 in assay [1] was determined as 788 nM. The Activity in assay [2] (filed as agonist) turned out to be 42%; in assay [4] (filed as agonist) it was 64%.

Consider `COC(=O)CCS(=O)(=O)N1CCc2cc(N(C)Cc3ccc(OC(C)C)c(C#N)c3)ccc2C1`, for which the Activity amounted to 5% in assay [2] and 12% in assay [4].

`COC(=O)CCS(=O)(=O)N1CCc2cc(NCc3ccc(OC(C)C)c(C#N)c3)ccc2C1`: the Activity in assay [2] is 26%; in assay [4] it was 13%.

On to `COC(=O)CCCN1CCc2cc(OCc3ccc(OC(C)C)c(C#N)c3)ccc2C1`, for which the Activity in assay [2] (filed as agonist) was 91%; in assay [4], 7%. Moreover, the concentration for a half-maximal effect (EC50) in assay [3] was 154 nM.

`CC(C)Oc1ccc(COc2ccc3c(c2)CCCN(CCC(=O)O)C3)cc1C#N`: the Activity was 2% in assay [2] and 3% in assay [4].

On to `CC(C)Oc1ccc(COc2ccc3c(c2)CCCN3S(=O)(=O)CCCO)cc1C#N`, for which the Activity in assay [2] was 35%; in assay [4] it was 3%.

Turning to `CNC(=O)CCC(=O)N1CCc2cc(OCc3ccc(OC(C)C)c(C#N)c3)ccc2C1`, the Activity was 82% in assay [2] (filed as agonist) and 39% in assay [4]. The EC50 in assay [3] was 1470 nM.

As for `CC(C)Oc1ccc(COc2ccc3c(c2)CN(S(=O)(=O)CCC(=O)O)CCC3)cc1C#N`, the Activity in assay [2] was determined as 0%; in assay [4] it was 8%.

Regarding `CC(C)Oc1ccc(COc2cccc3c2CCN(CCC(=O)O)C3)cc1C#N`, the values for the Activity in assay [2] and in assay [4] were 2% and 6%, respectively.

`CC(C)Oc1ccc(COc2ccc3c(c2)CCN(S(=O)(=O)CC(=O)O)C3C)cc1C#N` (centres undefined): the figures for the Activity in assay [2] and in assay [4] were 17% and 21%, respectively.

Take `CC(C)Oc1ccc(COc2ccc3c(c2)CN(CCC(=O)O)CCC3)cc1C#N`: the Activity amounted to 6% in assay [2] and 13% in assay [4].

Take `COC(=O)CCS(=O)(=O)N1CCc2cc(OCc3ccc(OC(C)C)c(C#N)c3)ccc2C1`: the values for the Activity in assay [2] (filed as agonist) and in assay [4] were 103% and 9%, respectively. Also, the EC50 in assay [3] came out at 59.9 nM.

In the case of `CC(C)Oc1ccc(COc2ccc3c(c2)CCN(S(=O)(=O)CCCO)C3C)cc1C#N` (centres undefined), the Activity in assay [2] (filed as agonist) was 45%; in assay [4], 12%.

As for `CC(C)Oc1ccc(COc2ccc3c(c2)CCN(CCCO)C3)cc1C#N`, the Activity is 30% in assay [2] and 5% in assay [4].
